According to the NIST ThermoML archive (doi:10.1021/je900722m):

Test: xn = mol fraction of the nth substance listed
Conditions: 101 kPa, Liquid

CCC(C)O (stereo unspecified) [butan-2-ol] + CCCCO
Conditions | mass density [kg/m3] | viscosity [mPa·s]
303.15 K, x2 = 0.1008 | 798.816 | 3.157
303.15 K, x2 = 0.2005 | 799.24 | 3.08
303.15 K, x2 = 0.3002 | 799.646 | 3.027
303.15 K, x2 = 0.4006 | 800.045 | 2.987
303.15 K, x2 = 0.5004 | 800.435 | 2.956
303.15 K, x2 = 0.6005 | 800.827 | 2.932
303.15 K, x2 = 0.6999 | 801.204 | 2.912
303.15 K, x2 = 0.7989 | 801.568 | 2.894
303.15 K, x2 = 0.8988 | 801.909 | 2.875
308.15 K, x2 = 0.1008 | 794.588 | 2.679
308.15 K, x2 = 0.2005 | 795.059 | 2.65
308.15 K, x2 = 0.3002 | 795.516 | 2.626
308.15 K, x2 = 0.4006 | 795.957 | 2.609
308.15 K, x2 = 0.5004 | 796.396 | 2.595
308.15 K, x2 = 0.6005 | 796.828 | 2.583
308.15 K, x2 = 0.6999 | 797.242 | 2.57
308.15 K, x2 = 0.7989 | 797.635 | 2.557
308.15 K, x2 = 0.8988 | 798.014 | 2.545
313.15 K, x2 = 0.1008 | 790.266 | 2.312
313.15 K, x2 = 0.2005 | 790.801 | 2.299
313.15 K, x2 = 0.3002 | 791.313 | 2.288
313.15 K, x2 = 0.4006 | 791.795 | 2.283
313.15 K, x2 = 0.5004 | 792.279 | 2.278
313.15 K, x2 = 0.6005 | 792.762 | 2.275
313.15 K, x2 = 0.6999 | 793.224 | 2.272
313.15 K, x2 = 0.7989 | 793.655 | 2.268
313.15 K, x2 = 0.8988 | 794.069 | 2.264
318.15 K, x2 = 0.1008 | 785.851 | 1.982
318.15 K, x2 = 0.2005 | 786.455 | 1.981
318.15 K, x2 = 0.3002 | 787.036 | 1.981
318.15 K, x2 = 0.4006 | 787.575 | 1.982
318.15 K, x2 = 0.5004 | 788.113 | 1.986
318.15 K, x2 = 0.6005 | 788.64 | 1.992
318.15 K, x2 = 0.6999 | 789.157 | 1.999
318.15 K, x2 = 0.7989 | 789.625 | 2.007
318.15 K, x2 = 0.8988 | 790.08 | 2.013
323.15 K, x2 = 0.1008 | 781.329 | 1.723
323.15 K, x2 = 0.2005 | 782.01 | 1.737
323.15 K, x2 = 0.3002 | 782.667 | 1.75
323.15 K, x2 = 0.4006 | 783.274 | 1.763
323.15 K, x2 = 0.5004 | 783.873 | 1.773
323.15 K, x2 = 0.6005 | 784.456 | 1.782
323.15 K, x2 = 0.6999 | 785.021 | 1.79
323.15 K, x2 = 0.7989 | 785.535 | 1.795
323.15 K, x2 = 0.8988 | 786.04 | 1.798
328.15 K, x2 = 0.1008 | 776.706 | 1.506
328.15 K, x2 = 0.2005 | 777.468 | 1.525
328.15 K, x2 = 0.3002 | 778.208 | 1.543
328.15 K, x2 = 0.4006 | 778.887 | 1.56
328.15 K, x2 = 0.5004 | 779.553 | 1.576
328.15 K, x2 = 0.6005 | 780.198 | 1.59
328.15 K, x2 = 0.6999 | 780.817 | 1.602
328.15 K, x2 = 0.7989 | 781.386 | 1.612
328.15 K, x2 = 0.8988 | 781.936 | 1.621
333.15 K, x2 = 0.1008 | 771.968 | 1.327
333.15 K, x2 = 0.2005 | 772.822 | 1.349
333.15 K, x2 = 0.3002 | 773.649 | 1.369
333.15 K, x2 = 0.4006 | 774.407 | 1.387
333.15 K, x2 = 0.5004 | 775.144 | 1.405
333.15 K, x2 = 0.6005 | 775.861 | 1.421
333.15 K, x2 = 0.6999 | 776.534 | 1.434
333.15 K, x2 = 0.7989 | 777.165 | 1.447
333.15 K, x2 = 0.8988 | 777.765 | 1.457
338.15 K, x2 = 0.1008 | 767.116 | 1.178
338.15 K, x2 = 0.2005 | 768.057 | 1.201
338.15 K, x2 = 0.3002 | 768.985 | 1.224
338.15 K, x2 = 0.4006 | 769.83 | 1.242
338.15 K, x2 = 0.5004 | 770.644 | 1.258
338.15 K, x2 = 0.6005 | 771.436 | 1.275
338.15 K, x2 = 0.6999 | 772.174 | 1.29
338.15 K, x2 = 0.7989 | 772.85 | 1.302
338.15 K, x2 = 0.8988 | 773.53 | 1.315
343.15 K, x2 = 0.1008 | 762.161 | 1.055
343.15 K, x2 = 0.2005 | 763.194 | 1.08
343.15 K, x2 = 0.3002 | 764.213 | 1.102
343.15 K, x2 = 0.4006 | 765.15 | 1.121
343.15 K, x2 = 0.5004 | 766.048 | 1.138
343.15 K, x2 = 0.6005 | 766.918 | 1.155
343.15 K, x2 = 0.6999 | 767.729 | 1.171
343.15 K, x2 = 0.7989 | 768.484 | 1.184
343.15 K, x2 = 0.8988 | 769.214 | 1.197

CC(C)(C)O [2-methylpropan-2-ol] + CCCCO
Conditions | mass density [kg/m3] | viscosity [mPa·s]
308.15 K, x2 = 0.1017 | 774.752 | 3.438
308.15 K, x2 = 0.2006 | 778.293 | 3.374
308.15 K, x2 = 0.3008 | 781.316 | 3.302
308.15 K, x2 = 0.4005 | 784.068 | 3.22
308.15 K, x2 = 0.5011 | 786.651 | 3.125
308.15 K, x2 = 0.6002 | 789.119 | 3.021
308.15 K, x2 = 0.6975 | 791.52 | 2.912
308.15 K, x2 = 0.7987 | 793.957 | 2.791
308.15 K, x2 = 0.8978 | 796.247 | 2.667
313.15 K, x2 = 0.1017 | 769.698 | 2.787
313.15 K, x2 = 0.2006 | 773.439 | 2.763
313.15 K, x2 = 0.3008 | 776.66 | 2.733
313.15 K, x2 = 0.4005 | 779.566 | 2.693
313.15 K, x2 = 0.5011 | 782.289 | 2.64
313.15 K, x2 = 0.6002 | 784.884 | 2.577
313.15 K, x2 = 0.6975 | 787.385 | 2.508
313.15 K, x2 = 0.7987 | 789.899 | 2.429
313.15 K, x2 = 0.8978 | 792.264 | 2.347
318.15 K, x2 = 0.1017 | 764.541 | 2.299
318.15 K, x2 = 0.2006 | 768.484 | 2.302
318.15 K, x2 = 0.3008 | 771.902 | 2.298
318.15 K, x2 = 0.4005 | 774.974 | 2.284
318.15 K, x2 = 0.5011 | 777.844 | 2.258
318.15 K, x2 = 0.6002 | 780.565 | 2.223
318.15 K, x2 = 0.6975 | 783.18 | 2.182
318.15 K, x2 = 0.7987 | 785.795 | 2.131
318.15 K, x2 = 0.8978 | 788.241 | 2.076
323.15 K, x2 = 0.1017 | 759.283 | 1.922
323.15 K, x2 = 0.2006 | 763.421 | 1.942
323.15 K, x2 = 0.3008 | 767.037 | 1.956
323.15 K, x2 = 0.4005 | 770.272 | 1.957
323.15 K, x2 = 0.5011 | 773.307 | 1.95
323.15 K, x2 = 0.6002 | 776.162 | 1.934
323.15 K, x2 = 0.6975 | 778.901 | 1.91
323.15 K, x2 = 0.7987 | 781.617 | 1.877
323.15 K, x2 = 0.8978 | 784.158 | 1.841
328.15 K, x2 = 0.1017 | 753.923 | 1.635
328.15 K, x2 = 0.2006 | 758.252 | 1.666
328.15 K, x2 = 0.3008 | 762.068 | 1.69
328.15 K, x2 = 0.4005 | 765.483 | 1.704
328.15 K, x2 = 0.5011 | 768.677 | 1.709
328.15 K, x2 = 0.6002 | 771.695 | 1.704
328.15 K, x2 = 0.6975 | 774.542 | 1.692
328.15 K, x2 = 0.7987 | 777.372 | 1.672
328.15 K, x2 = 0.8978 | 780.002 | 1.65
333.15 K, x2 = 0.1017 | 748.453 | 1.406
333.15 K, x2 = 0.2006 | 752.974 | 1.439
333.15 K, x2 = 0.3008 | 756.986 | 1.466
333.15 K, x2 = 0.4005 | 760.579 | 1.486
333.15 K, x2 = 0.5011 | 763.946 | 1.5
333.15 K, x2 = 0.6002 | 767.111 | 1.504
333.15 K, x2 = 0.6975 | 770.1 | 1.501
333.15 K, x2 = 0.7987 | 773.05 | 1.492
333.15 K, x2 = 0.8978 | 775.796 | 1.478
338.15 K, x2 = 0.1017 | 742.882 | 1.221
338.15 K, x2 = 0.2006 | 747.587 | 1.254
338.15 K, x2 = 0.3008 | 751.795 | 1.282
338.15 K, x2 = 0.4005 | 755.568 | 1.306
338.15 K, x2 = 0.5011 | 759.113 | 1.324
338.15 K, x2 = 0.6002 | 762.433 | 1.335
338.15 K, x2 = 0.6975 | 765.569 | 1.339
338.15 K, x2 = 0.7987 | 768.651 | 1.34
338.15 K, x2 = 0.8978 | 771.52 | 1.335
343.15 K, x2 = 0.1017 | 737.201 | 1.07
343.15 K, x2 = 0.2006 | 742.083 | 1.103
343.15 K, x2 = 0.3008 | 746.492 | 1.131
343.15 K, x2 = 0.4005 | 750.446 | 1.156
343.15 K, x2 = 0.5011 | 754.166 | 1.177
343.15 K, x2 = 0.6002 | 757.655 | 1.191
343.15 K, x2 = 0.6975 | 760.941 | 1.2
343.15 K, x2 = 0.7987 | 764.169 | 1.207
343.15 K, x2 = 0.8978 | 767.155 | 1.208
